Data set [1] has as its system hexobarbital-induced sleeping time. Conditions: 300 to 500 mg per kg; cited from earlier work.
The subject of a further data set is mice. Conditions: cited from earlier work.
The subject of another data set is rat brain cortex slices. Conditions: in vitro; cited from earlier work.
Data set [2] has as its system rate of weight gain in animals. Conditions: animal feeds, up to 200 grams per ton; cited from earlier work.
The conditions of data set [3]: cited from earlier work.
For data set [4], the system named is spontaneous motor activity. Conditions: mice, 75 mg/kg; cited from earlier work.
Data set [5] deals with tobacco consumption of habitual smokers. As to the kind of experiment: General observations of treatment on tobacco consumption and subjective effects. In kind it is in vivo, human (test subjects. The source says: In a preferred embodiment, finely divided ethyl maltol is distributed in a chewing gum base, which when chewed by the subject, results in a gradual release of ethyl maltol into the oral cavity. When administered in appropriate amounts over a period of several days, there results a gradual decrease in the number of cigarettes smoked and the length of time they are smoked. […] Reductions in the frequency and quantity of smoking have been observed in test subjects who were unaware that their smoking behavior was monitored. […] Subjectively, test subjects experience a reduced desired to smoke, tend to neglect the opportunities to light up a cigarette and tend to leave cigarettes unsmoked in the ashtray after a few puffs. The effect is sufficiently subtle that a smoker is sometimes unaware that their tobacco consumption rate was decreased until such point as the lowered consumption rate becomes obvious. For smokers sincerely desiring to reduce or eliminate their smoking, the effect of the treatment is most gratifying. However, for smokers who are not psychologically committed to giving up smoking, the effects may be alarming. It is of course, possible to override the effects of the treatment by conscious effort to smoke at the pre-treatment rate.
Smoking behavior is complex and includes cigarette, pipe and cigar smoking. Both from the standpoint of habituation and of health hazard, cigarette smoking is considered to be the most serious. It is contemplated that the treatment method described herein will be effective to inhibit all forms of smoking behavior and combinations thereof, involving the consumption of tobacco. For convenience, the ensuing discussion focuses on cigarette smoking, as exemplary of smoking behavior in general. Tobacco consumption is a function the number of cigarettes smoked and the proportion of each cigarette smoked. Reduction of consumption is measured by comparison with a smoker's pretreatment consumption rate. All data used herein are expressed as percent reduction, i.e., the differential between pretreatment and current smoking consumption rate divided by the pretreatment rate, times 100. All rates are calculated to take into account both the number of cigarettes smoked and the proportion of each smoked.
Duration of treatment may be as little as ten days, preferably 20 to 30 days. As might be expected with a complex behavior such as smoking, where psychological and social factors play a major role in addition to individual variations in nicotine susceptibility and responsiveness to gamma pyrone, the rate of smoking reduction during treatment is highly variable. Typically, a gradual reduction to about 50% to the pretreatment rate is observed over the first four to six days. Frequently, little or no reduction is observed for the first two days, although occasionally a dramatic reduction is observed almost immediately. In the ensuing seven to ten days, further reductions, typically 70 to 100%, are observed. Reduction below the 50% level in the first 3-5 days is sometimes accompanied by the physiological (but not psychological) symptoms of nicotine withdrawl, such as vertigo, alimentary distress, diuresis, scotoma and disorientation. Such symptoms have never been observed in non-smoking control subjects using the same gamma pyrone dosages. […] The entire course of treatment is therefore extended somewhat, preferably to about 20 to 30 days total. […]

The conditions of data set [6]: cited from earlier work. The source holds these as a separate data set.
In data set [7] the test system is convulsions produced by pentylenetetrazole or strychnine. Conditions: 300 to 500 mg per kg; cited from earlier work.
The test system of a further data set is smoking behavior. Conditions: cited from earlier work.

As to `Cc1occc(=O)c1O` [maltol, 3-hydroxy-2-methyl-4-pyrone], the hexobarbital-induced sleeping time entry in data set [1] is on record as “potentiating hexobarbital-induced sleeping time”. Further, the “acute LD50” value with mice is on record as 820 mg per kg. In addition, in the data set on rat brain cortex slices, the “oxygen intake by rat brain cortex slices” value is on record as “not affected”. In data set [2], the “rate of weight gain” value was “improves the rate of weight gain”. Moreover, in data set [3] (after oral administration), the absorption result was “rapidly absorbed”; the excretion result was “rapidly excreted”; the form of excretion result is “primarily as glucuronide and ethereal sulfate conjugates”. Moreover, in data set [3] (in vivo), the metabolism and excretion entry is “rapidly metabolized and excreted”. Also, in data set [4], the “spontaneous motor activity, decrease” value is “approximately 50%”. Also, in [5] (appropriate dosage levels and rates), the “tobacco consumption of habitual smokers” value is “significantly reduces the tobacco consumption of habitual smokers”. Further, the “minimum effective dose relative to ethyl maltol” value in [5] (in vivo) is 4 to 6 times greater. Further, in data set [6] (as much as 1.5 grams per day), the consumption per day result was “completely harmless”. In addition, the “safe average daily intake” value in data set [6] (per day) is listed as 1 mg per kg. Besides, the “convulsions produced by pentylenetetrazole or strychnine” value in [7] was “inhibited convulsions”.
Consider `CN1[C@@H](CC(=O)c2ccccc2)CCC[C@H]1C[C@H](O)c1ccccc1` [lobeline], for which, in the data set on smoking behavior (controlled double blind tests), the “effectiveness versus placebo for smoking” value is “ineffective, i.e., no more effective than placebos”. In the data set with smoking behavior (in vivo), the pharmacological action result is given as “weak nicotine-like action” and the “withdrawal syndrome on discontinuation” value is reported as “apparently discontinuable without a withdrawal syndrome”.
